This is an account of results in patent publication US6476017B2, “Compounds activating pharmacological effect of retinoids” (Institute of Medicinal Molecular Design, Inc., priority 1995, dated 2002).

Each structure is given as a SMILES string.

The test concerns promyelocytic leukemia cell strain HL-60. Put plainly: Cell differentiation inducing activity of retinoids on HL-60 in presence/absence of test compound (NBT reduction). The class given is cell-based. On the procedure: The effects of the compounds of the above Examples 1 and 2 on cell differentiation induced by retinoids were studied. As retinoid compounds (i.e., agonists against the all-trans retinoic acid receptor), retinoic acid and Am80 (4-[(5,6,7,8-tetrahydro-5,5,8,8-tetramethyl-2-naphthalenyl)carbamoyl]benzoic acid) were used. Cell differentiation inducing activities of the above retinoids on promyelocytic leukemia cell strain HL-60 were measured in the presence and absence of the compounds of Examples 1 and 2 according to the method described in the Japanese Patent Unexamined Publication (KOKAI) No.(Sho)61-76440/1986. The degrees of the differentiation into granulocytic cell were determined by observing nuclear morphologies and measuring abilities to reduce nitroblue tetrazolium (NBT). This method is well known in the art as a test that enables accurate evaluation of the cell differentiation inducing activity of retinoids. The results are shown in the Table 2 set out below (in the table, NTB positive ratio represents a percent value of differentiated cells based on living cells).
Effect of the compound of Example 10 (HX801) on the cell differentiation inducing activity by a retinoid was examined. Am80 was used as the retinoid compound and the cell differentiation inducing activity of the above retinoid on promyelocytic leukemia cell strain HL-60 was determined in the presence or absence of the compound of HX801 in the same manner as Example 15. The results are shown in the Table 3 set out below (in the table, the symbol “-” indicates no addition).

Regarding `CN1C(=O)CN=C(c2ccc(C(=O)O)cc2)c2cc3c(cc21)C(C)(C)CCC3(C)C` [HX801, 4-[1,3-dihydro-7,8-(2,5-dimethyl-2,5-hexano)-1-methyl-2-oxo-2H-1,4-benzodiazepine-5-yl]benzoic acid], the “NBT positive ratio” value is given as 77% (Table 3: Am80 1.0 × 10^−9 M + HX801 1.0 × 10^−6 M); 63% (Table 3: Am80 1.0 × 10^−9 M + HX801 1.1 × 10^−7 M); 76% (Table 3: Am80 1.0 × 10^−9 M + HX801 3.3 × 10^−7 M); 48% (Table 3: Am80 1.1 × 10^−10 M + HX801 1.0 × 10^−6 M); 22% (Table 3: Am80 1.1 × 10^−10 M + HX801 1.1 × 10^−7 M); 28% (Table 3: Am80 1.1 × 10^−10 M + HX801 3.3 × 10^−7 M). Besides, the “NBT positive ratio” value is listed as 2% (Table 3: Am80 1.2 × 10^−11 M + HX801 1.0 × 10^−6 M); 1.4% (Table 3: Am80 1.2 × 10^−11 M + HX801 1.1 × 10^−7 M); 2% (Table 3: Am80 1.2 × 10^−11 M + HX801 3.3 × 10^−7 M); 71% (Table 3: Am80 3.3 × 10^−10 M + HX801 1.0 × 10^−6 M); 49% (Table 3: Am80 3.3 × 10^−10 M + HX801 1.1 × 10^−7 M); 55% (Table 3: Am80 3.3 × 10^−10 M + HX801 3.3 × 10^−7 M). Besides, the “NBT positive ratio” value runs as follows: (Table 3: Am80 3.7 × 10^−11 M + HX801 1.0 × 10^−6 M) 4.4%; (Table 3: Am80 3.7 × 10^−11 M + HX801 1.1 × 10^−7 M) 4%; (Table 3: Am80 3.7 × 10^−11 M + HX801 3.3 × 10^−7 M) 2.3%; (Table 3: HX801 1.0 × 10^−6 M alone, no Am80) 1.1%; (Table 3: HX801 1.1 × 10^−7 M alone, no Am80) 1.1%; (Table 3: HX801 3.3 × 10^−7 M alone, no Am80) 0.3%.

`CC1(C)CCC(C)(C)c2cc(NC(=O)c3ccc(C(=O)O)cc3)ccc21` [Am80, 4-[(5,6,7,8-tetrahydro-5,5,8,8-tetramethyl-2-naphthalenyl)carbamoyl]benzoic acid, reference compound]: the NBT positive ratio stood at 55% (Am80 1.0 × 10^−8 M alone, test compound absent (HX600 series)); 55% (Am80 1.0 × 10^−8 M alone, test compound absent (LE135 series)); 44% (Am80 1.1 × 10^−9 M alone, test compound absent (HX600 series)); 35% (Am80 1.1 × 10^−9 M alone, test compound absent (LE135 series)); 53% (Am80 3.3 × 10^−9 M alone, test compound absent (HX600 series)); 51% (Am80 3.3 × 10^−9 M alone, test compound absent (LE135 series)). The NBT positive ratio amounted to 15% (Am80 3.7 × 10^−10 M alone, test compound absent (HX600 series)); 21% (Am80 3.7 × 10^−10 M alone, test compound absent (LE135 series)); 48% (Table 3: Am80 1.0 × 10^−9 M alone, no HX801); 5% (Table 3: Am80 1.1 × 10^−10 M alone, no HX801); 0.6% (Table 3: Am80 1.2 × 10^−11 M alone, no HX801); 30% (Table 3: Am80 3.3 × 10^−10 M alone, no HX801). Further, the “NBT positive ratio” value (Table 3: Am80 3.7 × 10^−11 M alone, no HX801) is 3%.

In the case of `CN1c2ccccc2N=C(c2ccc(C(=O)O)cc2)c2cc3c(cc21)C(C)(C)CCC3(C)C` [HX600, 4-[5H-2,3-(2,5-dimethyl-2,5-hexano)-5-methyldibenzo-[b,e][1,4]diazepine-11-yl]benzoic acid], the NBT positive ratio came out at 95% (Am80 1.0 × 10^−8 M + test compound 1.0 × 10^−6 M (HX600 series)); 91% (Am80 1.0 × 10^−8 M + test compound 1.0 × 10^−7 M); 80% (Am80 1.0 × 10^−8 M + test compound 1.0 × 10^−8 M); 69% (Am80 1.0 × 10^−8 M + test compound 1.0 × 10^−9 M); 93% (Am80 1.1 × 10^−9 M + test compound 1.0 × 10^−6 M (HX600 series)); 90% (Am80 1.1 × 10^−9 M + test compound 1.0 × 10^−7 M). Further, the NBT positive ratio is 65% (Am80 1.1 × 10^−9 M + test compound 1.0 × 10^−8 M); 48% (Am80 1.1 × 10^−9 M + test compound 1.0 × 10^−9 M); 93% (Am80 3.3 × 10^−9 M + test compound 1.0 × 10^−6 M (HX600 series)); 93% (Am80 3.3 × 10^−9 M + test compound 1.0 × 10^−7 M); 73% (Am80 3.3 × 10^−9 M + test compound 1.0 × 10^−8 M); 64% (Am80 3.3 × 10^−9 M + test compound 1.0 × 10^−9 M). The NBT positive ratio reads like this: (Am80 3.7 × 10^−10 M + test compound 1.0 × 10^−6 M (HX600 series)) 67%; (Am80 3.7 × 10^−10 M + test compound 1.0 × 10^−7 M) 72%; (Am80 3.7 × 10^−10 M + test compound 1.0 × 10^−8 M) 41%; (Am80 3.7 × 10^−10 M + test compound 1.0 × 10^−9 M) 21%; (Retinoic acid 1.0 × 10^−8 M + test compound 1.0 × 10^−6 M) 91%; (Retinoic acid 1.0 × 10^−8 M + test compound 1.1 × 10^−7 M) 91%. In addition, the NBT positive ratio reads like this: (Retinoic acid 1.0 × 10^−8 M + test compound 3.3 × 10^−7 M) 91%; (Retinoic acid 1.1 × 10^−9 M + test compound 1.0 × 10^−6 M) 69%; (Retinoic acid 1.1 × 10^−9 M + test compound 1.1 × 10^−7 M) 68%; (Retinoic acid 1.1 × 10^−9 M + test compound 3.3 × 10^−7 M) 76%; (Retinoic acid 3.3 × 10^−9 M + test compound 1.0 × 10^−6 M) 90%; (Retinoic acid 3.3 × 10^−9 M + test compound 1.1 × 10^−7 M) 86%. For the same compound, the NBT positive ratio (Retinoic acid 3.3 × 10^−9 M + test compound 3.3 × 10^−7 M) is given as 90%.

As to `CC1(C)CCC(C)(C)c2cc3c(cc21)Cc1ccccc1N=C3c1ccc(C(=O)O)cc1` [HX640, 4-[2,3-(2,5-dimethyl-2,5-hexano)-dibenzo[b,e]azepine-11-yl]benzoic acid], the NBT positive ratio reads like this: (Am80 1.1 × 10^−10 M + test compound 1.0 × 10^−7 M) 69%; (Am80 1.1 × 10^−10 M + test compound 1.0 × 10^−8 M) 24%; (Am80 1.1 × 10^−10 M + test compound 1.0 × 10^−9 M) 5%; (Am80 1.1 × 10^−10 M + test compound 1.0 × 10^−10 M) 7%; (Am80 3.3 × 10^−10 M + test compound 1.0 × 10^−6 M) 85%; (Am80 3.3 × 10^−10 M + test compound 1.0 × 10^−7 M) 89%. For the same compound, the NBT positive ratio is listed as 75% (Am80 3.3 × 10^−10 M + test compound 1.0 × 10^−8 M), 46% (Am80 3.3 × 10^−10 M + test compound 1.0 × 10^−9 M) and 44% (Am80 3.3 × 10^−10 M + test compound 1.0 × 10^−10 M).
